How the values were obtained:
[1] = target: 5'-AMP-activated protein kinase catalytic subunit alpha-1 (Homo sapiens, UniProt Q13131); assay: Selectivity interaction (Kinase panel (KiNativ target engagement assay in Jurkat cells)) EUB0001635a PRKAA1; assay type: cell-based; conditions: Selectivity number of off-targets 0.0, Selectivity number of targets 233.0, Source Knowledge https://www.sciencedirect.com/science/article/pii/S2451945619300674?via%3Dihub, at 1 µM
[2] = target: Non-receptor tyrosine-protein kinase TYK2 (Homo sapiens, UniProt P29597); assay: Selectivity interaction (KinomeScan (DiscoverX)) EUB0000595a TYK2; conditions: at 10 µM
[3] = target: T1, Ephrin type-A receptor 8 (Homo sapiens) (UniProt P29322); assay: Selectivity interaction (KinomeScan (DiscoverX)) EUB0000595a EPHA8; conditions: at 10 µM
T1 sequence (whole entry): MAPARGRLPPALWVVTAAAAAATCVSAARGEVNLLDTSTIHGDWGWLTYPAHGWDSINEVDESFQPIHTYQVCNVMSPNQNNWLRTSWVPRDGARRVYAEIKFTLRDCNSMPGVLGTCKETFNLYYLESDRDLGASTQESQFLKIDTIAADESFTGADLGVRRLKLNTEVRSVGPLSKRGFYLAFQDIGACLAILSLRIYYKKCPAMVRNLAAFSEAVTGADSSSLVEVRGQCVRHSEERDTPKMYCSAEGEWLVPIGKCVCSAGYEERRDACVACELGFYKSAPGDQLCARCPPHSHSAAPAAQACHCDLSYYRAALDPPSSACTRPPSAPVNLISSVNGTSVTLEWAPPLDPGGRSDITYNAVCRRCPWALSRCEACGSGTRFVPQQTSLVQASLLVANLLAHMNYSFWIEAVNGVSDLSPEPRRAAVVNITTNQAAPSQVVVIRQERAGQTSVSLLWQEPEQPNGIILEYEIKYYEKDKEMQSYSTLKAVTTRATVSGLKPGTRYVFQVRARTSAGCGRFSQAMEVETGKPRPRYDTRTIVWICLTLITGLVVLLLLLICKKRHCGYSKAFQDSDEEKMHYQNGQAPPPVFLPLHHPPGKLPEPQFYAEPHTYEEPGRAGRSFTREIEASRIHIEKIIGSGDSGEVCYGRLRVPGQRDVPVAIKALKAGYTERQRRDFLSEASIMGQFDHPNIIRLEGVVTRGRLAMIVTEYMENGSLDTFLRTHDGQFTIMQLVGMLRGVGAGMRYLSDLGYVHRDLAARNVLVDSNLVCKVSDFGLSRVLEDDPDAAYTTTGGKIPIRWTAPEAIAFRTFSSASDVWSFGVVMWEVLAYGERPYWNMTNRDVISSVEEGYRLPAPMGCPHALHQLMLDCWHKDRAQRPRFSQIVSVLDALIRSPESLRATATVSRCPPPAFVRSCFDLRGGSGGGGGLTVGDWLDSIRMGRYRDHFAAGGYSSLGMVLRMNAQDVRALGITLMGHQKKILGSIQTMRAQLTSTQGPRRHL

[4] = target: Tyrosine-protein kinase ABL1 (Homo sapiens, UniProt P00519); assay: Selectivity interaction (KinomeScan (DiscoverX)) EUB0000045b ABL1; conditions: at 10 µM
[5] = target: Protein arginine N-methyltransferase 1 (Homo sapiens, UniProt Q99873); assay: Selectivity interaction (Methyltransferase screen (radiometric assays, panel of 8 PRMTs, 21 protein lysine methyltransferases, 3 DNA methyltransferases, and one RNA methyltransferase)) EUB0000272b PRMT1
[6] = target: Serine/threonine-protein kinase WNK1 (Homo sapiens) (UniProt Q9H4A3); assay: Selectivity interaction (KinomeScan (DiscoverX)) EUB0000666a WNK1; conditions: at 10 µM
[7] = target: Myosin light chain kinase 2, skeletal/cardiac muscle (Homo sapiens) (UniProt Q9H1R3); conditions: at 10 µM
[8] = target: Fibroblast growth factor receptor 4 (Homo sapiens, UniProt P22455); assay: Selectivity interaction (KinomeScan (DiscoverX)) EUB0001049a FGFR4; conditions: at 1 µM
[9] = target: Platelet-derived growth factor receptor beta (Homo sapiens, UniProt P09619); assay: Selectivity interaction (Millipore kinase profiler) EUB0000124b PDGFRB; conditions: at 10 µM
[10] = target: Prostaglandin G/H synthase 2 (Homo sapiens, UniProt P35354); assay: Selectivity interaction (COX-2 assay, human recombinant ) EUB0000877a PTGS2
[11] = target: Activin receptor type-2B (Homo sapiens) (UniProt Q13705); assay: Selectivity interaction (KinomeScan (DiscoverX)) EUB0000607a ACVR2B; conditions: at 10 µM
[12] = target: Tyrosine-protein kinase HCK (Homo sapiens) (UniProt P08631); assay: Selectivity interaction (SelectScreen profiling (Invitrogen)) EUB0000607a HCK; conditions: at 2 µM
[13] = target: Epithelial discoidin domain-containing receptor 1 (Homo sapiens) (UniProt Q08345); assay: Selectivity interaction (KinomeScan (DiscoverX)) EUB0000618a DDR1; conditions: at 10 µM
[14] = target: T2, MAP/microtubule affinity-regulating kinase 4 (Homo sapiens) (UniProt Q96L34); assay: Selectivity interaction (ActivX KiNativ screen (kinase selectivity in THP-1 cell lysates)) EUB0000639a MARK4; assay type: subcellular; conditions: lysate, at 0.01 µM
T2 sequence (whole entry): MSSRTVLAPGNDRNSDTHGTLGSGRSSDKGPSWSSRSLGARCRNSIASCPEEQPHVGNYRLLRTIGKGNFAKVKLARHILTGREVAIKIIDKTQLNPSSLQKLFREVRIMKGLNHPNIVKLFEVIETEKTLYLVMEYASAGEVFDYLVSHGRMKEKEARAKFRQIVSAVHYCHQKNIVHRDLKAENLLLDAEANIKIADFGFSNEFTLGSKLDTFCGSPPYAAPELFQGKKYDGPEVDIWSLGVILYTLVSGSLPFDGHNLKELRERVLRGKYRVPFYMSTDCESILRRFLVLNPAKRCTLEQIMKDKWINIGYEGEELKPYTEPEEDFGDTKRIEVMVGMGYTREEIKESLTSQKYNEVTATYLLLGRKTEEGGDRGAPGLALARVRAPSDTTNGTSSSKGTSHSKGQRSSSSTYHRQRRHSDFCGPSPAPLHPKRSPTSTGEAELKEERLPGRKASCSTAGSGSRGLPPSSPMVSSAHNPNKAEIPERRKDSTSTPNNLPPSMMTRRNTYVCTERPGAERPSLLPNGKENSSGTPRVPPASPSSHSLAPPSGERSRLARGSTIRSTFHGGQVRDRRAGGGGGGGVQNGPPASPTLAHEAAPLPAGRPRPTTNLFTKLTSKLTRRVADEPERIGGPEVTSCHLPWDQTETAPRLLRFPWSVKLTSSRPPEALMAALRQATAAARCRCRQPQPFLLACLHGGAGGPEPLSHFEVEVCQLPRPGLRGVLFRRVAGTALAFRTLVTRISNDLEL

[15] = target: Bone morphogenetic protein receptor type-1A (Homo sapiens, UniProt P36894); conditions: at 10 µM
[16] = target: MAP kinase-interacting serine/threonine-protein kinase 2 (Homo sapiens, UniProt Q9HBH9); assay: Selectivity interaction (Ambit KINOMEscan and KiNATiv profiling in Jurkat cells) EUB0000090b MKNK2; assay type: cell-based; conditions: at 1 µM
MAP kinase-interacting serine/threonine-protein kinase 2, sequence (Q9HBH9 whole entry, looked up): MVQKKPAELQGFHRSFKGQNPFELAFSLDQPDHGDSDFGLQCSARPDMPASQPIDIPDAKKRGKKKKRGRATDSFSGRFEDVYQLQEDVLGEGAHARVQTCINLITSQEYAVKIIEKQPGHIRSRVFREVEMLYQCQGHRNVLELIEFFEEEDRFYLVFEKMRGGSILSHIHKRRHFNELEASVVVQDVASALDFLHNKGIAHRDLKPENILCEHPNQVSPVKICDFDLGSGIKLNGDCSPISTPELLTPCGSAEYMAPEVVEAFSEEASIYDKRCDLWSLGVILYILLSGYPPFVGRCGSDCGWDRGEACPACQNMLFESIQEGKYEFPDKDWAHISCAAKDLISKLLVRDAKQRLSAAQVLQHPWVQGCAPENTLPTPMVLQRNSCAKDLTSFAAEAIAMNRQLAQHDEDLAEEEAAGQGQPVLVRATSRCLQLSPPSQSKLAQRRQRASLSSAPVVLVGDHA

Protein arginine N-methyltransferase 1, sequence (Q99873 whole entry, looked up): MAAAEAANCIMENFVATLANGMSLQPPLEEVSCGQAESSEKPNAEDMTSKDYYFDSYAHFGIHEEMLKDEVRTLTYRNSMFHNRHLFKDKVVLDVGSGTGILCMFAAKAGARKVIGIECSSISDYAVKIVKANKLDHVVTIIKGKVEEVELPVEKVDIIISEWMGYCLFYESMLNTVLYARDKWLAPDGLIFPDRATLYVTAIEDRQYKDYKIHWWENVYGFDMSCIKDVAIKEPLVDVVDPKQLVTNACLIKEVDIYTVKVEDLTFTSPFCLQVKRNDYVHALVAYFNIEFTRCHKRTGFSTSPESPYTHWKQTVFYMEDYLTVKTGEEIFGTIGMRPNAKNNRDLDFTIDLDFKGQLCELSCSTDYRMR
Serine/threonine-protein kinase WNK1 (Homo sapiens), sequence (Q9H4A3 whole entry, looked up): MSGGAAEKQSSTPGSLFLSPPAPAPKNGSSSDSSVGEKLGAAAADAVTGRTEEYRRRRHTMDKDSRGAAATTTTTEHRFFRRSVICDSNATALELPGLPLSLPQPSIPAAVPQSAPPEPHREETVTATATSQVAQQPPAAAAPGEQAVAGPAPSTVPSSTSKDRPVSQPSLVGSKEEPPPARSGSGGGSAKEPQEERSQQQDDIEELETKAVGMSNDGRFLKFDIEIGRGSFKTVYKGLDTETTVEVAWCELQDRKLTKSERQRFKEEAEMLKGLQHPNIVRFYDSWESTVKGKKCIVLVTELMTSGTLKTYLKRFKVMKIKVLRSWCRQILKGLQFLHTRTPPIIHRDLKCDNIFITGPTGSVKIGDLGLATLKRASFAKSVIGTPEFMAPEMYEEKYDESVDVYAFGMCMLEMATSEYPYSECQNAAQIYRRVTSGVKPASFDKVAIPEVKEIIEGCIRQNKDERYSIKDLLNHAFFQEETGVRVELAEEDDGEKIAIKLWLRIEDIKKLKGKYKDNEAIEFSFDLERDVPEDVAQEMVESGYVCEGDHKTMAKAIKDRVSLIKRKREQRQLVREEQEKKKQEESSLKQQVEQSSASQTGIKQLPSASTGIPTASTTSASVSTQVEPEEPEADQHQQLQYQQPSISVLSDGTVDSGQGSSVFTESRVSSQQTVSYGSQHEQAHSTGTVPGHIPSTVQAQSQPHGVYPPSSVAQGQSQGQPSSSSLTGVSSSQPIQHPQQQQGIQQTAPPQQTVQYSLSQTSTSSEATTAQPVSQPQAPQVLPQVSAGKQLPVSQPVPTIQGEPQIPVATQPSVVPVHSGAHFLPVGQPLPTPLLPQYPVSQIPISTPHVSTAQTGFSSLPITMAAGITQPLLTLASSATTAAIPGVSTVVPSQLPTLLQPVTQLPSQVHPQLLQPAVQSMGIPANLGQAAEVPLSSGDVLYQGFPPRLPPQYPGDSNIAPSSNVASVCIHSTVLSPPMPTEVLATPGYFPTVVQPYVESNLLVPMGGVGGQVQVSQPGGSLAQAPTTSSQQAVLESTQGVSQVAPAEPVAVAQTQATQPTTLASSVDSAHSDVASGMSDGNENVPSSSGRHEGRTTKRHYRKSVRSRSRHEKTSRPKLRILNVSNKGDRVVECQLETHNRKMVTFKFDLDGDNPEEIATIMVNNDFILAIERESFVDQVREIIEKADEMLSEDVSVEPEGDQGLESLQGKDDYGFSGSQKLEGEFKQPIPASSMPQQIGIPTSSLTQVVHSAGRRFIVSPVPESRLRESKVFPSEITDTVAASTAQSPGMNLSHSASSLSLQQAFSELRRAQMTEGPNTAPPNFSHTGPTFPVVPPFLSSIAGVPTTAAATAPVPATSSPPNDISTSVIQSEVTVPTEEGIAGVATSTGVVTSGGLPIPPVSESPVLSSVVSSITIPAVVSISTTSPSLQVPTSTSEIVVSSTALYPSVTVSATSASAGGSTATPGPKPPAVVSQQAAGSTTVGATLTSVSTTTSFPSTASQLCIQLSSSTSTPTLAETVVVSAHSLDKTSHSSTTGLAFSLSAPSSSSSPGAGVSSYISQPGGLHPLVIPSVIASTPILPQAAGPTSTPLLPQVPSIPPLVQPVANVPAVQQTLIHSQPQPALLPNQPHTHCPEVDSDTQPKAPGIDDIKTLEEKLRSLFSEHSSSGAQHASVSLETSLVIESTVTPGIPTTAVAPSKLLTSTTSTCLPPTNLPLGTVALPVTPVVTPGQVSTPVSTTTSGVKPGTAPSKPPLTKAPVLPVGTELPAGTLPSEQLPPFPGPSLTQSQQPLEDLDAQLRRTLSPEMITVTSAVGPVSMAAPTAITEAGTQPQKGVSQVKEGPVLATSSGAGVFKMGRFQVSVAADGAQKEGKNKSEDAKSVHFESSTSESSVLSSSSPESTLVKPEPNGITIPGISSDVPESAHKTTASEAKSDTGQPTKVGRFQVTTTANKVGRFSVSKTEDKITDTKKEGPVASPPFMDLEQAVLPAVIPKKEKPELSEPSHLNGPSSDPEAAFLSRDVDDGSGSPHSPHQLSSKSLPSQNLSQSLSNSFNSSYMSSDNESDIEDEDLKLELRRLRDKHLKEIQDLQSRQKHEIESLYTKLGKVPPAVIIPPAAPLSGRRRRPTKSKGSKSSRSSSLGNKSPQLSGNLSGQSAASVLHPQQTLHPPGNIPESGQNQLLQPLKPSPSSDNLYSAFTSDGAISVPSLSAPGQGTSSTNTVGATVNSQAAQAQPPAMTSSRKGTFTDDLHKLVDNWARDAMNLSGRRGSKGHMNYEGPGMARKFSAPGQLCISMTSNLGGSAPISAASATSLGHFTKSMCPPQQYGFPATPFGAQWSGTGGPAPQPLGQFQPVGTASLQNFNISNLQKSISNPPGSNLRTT
Tyrosine-protein kinase ABL1, sequence (P00519 whole entry): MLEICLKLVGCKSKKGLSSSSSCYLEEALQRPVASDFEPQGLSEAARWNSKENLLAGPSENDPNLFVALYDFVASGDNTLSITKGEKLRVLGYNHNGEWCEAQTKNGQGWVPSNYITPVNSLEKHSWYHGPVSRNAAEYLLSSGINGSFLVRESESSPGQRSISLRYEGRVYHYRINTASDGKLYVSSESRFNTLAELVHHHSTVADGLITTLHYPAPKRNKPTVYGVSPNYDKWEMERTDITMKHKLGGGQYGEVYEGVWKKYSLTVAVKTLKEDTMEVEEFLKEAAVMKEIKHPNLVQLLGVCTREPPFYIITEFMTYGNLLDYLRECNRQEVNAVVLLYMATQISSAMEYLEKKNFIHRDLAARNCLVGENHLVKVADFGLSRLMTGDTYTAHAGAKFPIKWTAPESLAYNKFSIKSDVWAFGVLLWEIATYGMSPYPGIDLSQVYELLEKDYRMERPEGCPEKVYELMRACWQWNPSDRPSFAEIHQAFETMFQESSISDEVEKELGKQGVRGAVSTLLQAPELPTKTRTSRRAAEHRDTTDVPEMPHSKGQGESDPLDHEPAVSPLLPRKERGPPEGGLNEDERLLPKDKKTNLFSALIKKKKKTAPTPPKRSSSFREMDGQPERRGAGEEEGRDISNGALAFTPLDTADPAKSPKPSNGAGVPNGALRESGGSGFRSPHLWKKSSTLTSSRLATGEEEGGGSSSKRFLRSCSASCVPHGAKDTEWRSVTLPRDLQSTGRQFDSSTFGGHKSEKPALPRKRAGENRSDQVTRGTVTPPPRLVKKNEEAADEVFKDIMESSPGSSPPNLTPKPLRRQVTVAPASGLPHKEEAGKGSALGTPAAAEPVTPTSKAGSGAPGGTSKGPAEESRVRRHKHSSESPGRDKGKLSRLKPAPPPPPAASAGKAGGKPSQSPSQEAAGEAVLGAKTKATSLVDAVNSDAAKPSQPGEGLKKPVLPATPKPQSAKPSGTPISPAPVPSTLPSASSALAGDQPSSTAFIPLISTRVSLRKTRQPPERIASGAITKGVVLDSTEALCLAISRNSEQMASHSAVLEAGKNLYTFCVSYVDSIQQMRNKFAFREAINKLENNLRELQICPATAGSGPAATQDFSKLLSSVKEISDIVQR
5'-AMP-activated protein kinase catalytic subunit alpha-1, sequence (Q13131 whole entry, looked up): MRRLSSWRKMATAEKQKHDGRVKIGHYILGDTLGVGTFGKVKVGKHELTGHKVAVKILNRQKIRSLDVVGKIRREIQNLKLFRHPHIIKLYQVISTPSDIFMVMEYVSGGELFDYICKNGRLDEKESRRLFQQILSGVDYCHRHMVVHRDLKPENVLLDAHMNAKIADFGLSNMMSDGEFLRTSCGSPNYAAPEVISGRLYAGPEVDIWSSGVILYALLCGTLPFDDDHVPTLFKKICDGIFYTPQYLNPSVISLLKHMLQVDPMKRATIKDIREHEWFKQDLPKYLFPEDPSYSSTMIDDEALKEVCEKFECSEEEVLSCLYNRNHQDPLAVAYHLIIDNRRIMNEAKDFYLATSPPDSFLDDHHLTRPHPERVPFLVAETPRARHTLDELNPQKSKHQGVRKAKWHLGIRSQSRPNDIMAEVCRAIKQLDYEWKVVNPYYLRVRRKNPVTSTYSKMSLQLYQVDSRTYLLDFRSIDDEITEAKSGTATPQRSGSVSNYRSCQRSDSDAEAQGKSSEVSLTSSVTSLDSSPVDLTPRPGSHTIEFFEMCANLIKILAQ

Work on C=CC(=O)Nc1ccc(C(=O)Nc2[nH]nc3c2CN(C(=O)N[C@H](CN(C)C)c2ccccc2)C3(C)C)cc1 yielded a % of engagement [1] of 54.4%.

In the case of COCC(=O)NC/C=C/c1ccc2ncnc(Nc3ccc(Oc4ccc(C)nc4)c(C)c3)c2c1 [CP-724714], the % of control [2] is reported as 24% and the % of control [3] is reported as 98%.

In the case of C=CC(=O)Nc1cc(-n2c(=O)ccc3cnc4ccc(-c5ccc(NS(C)(=O)=O)cc5)cc4c32)ccc1C, the % of control [4] is reported as 79%.

Cc1cc(C)cc([C@H]2c3cc(C)ccc3NC(=O)CN2C(=O)c2ccc(Br)s2)c1 was tested, and the % of activity ([5]; at 1 µM) was 98.7% and the % of activity ([5]; at 10 µM) was 101%.

With O=C(NOC[C@H](O)CO)c1ccc(F)c(F)c1Nc1ccc(I)cc1F the % of control [6] was 92%.

Cc1cc([C@@H](C)Nc2ccccc2C(=O)O)c2nc(N3CCOCC3)cc(=O)n2c1 [AZD-6482] gave a % of control [7] of 100%.

With COc1cc(Nc2nc(C)cc(-c3cnn4nc(OC)ccc34)n2)cc(C(F)(F)F)c1 the % of control [8] was 100%.

Work on CC(=O)Nc1cccc(-n2c(=O)n(C3CC3)c(=O)c3c(Nc4ccc(I)cc4F)n(C)c(=O)c(C)c32)c1 yielded a % of control [9] of 111%.

CCC(=O)N1CC[C@H](Nc2ncnc3c2CN(c2cnc(OC)c(C(F)(F)F)c2)CC3)C1 [LENIOLISIB] gave an IC50 [10] of over 30 µM.

In the case of CNC(=O)Nc1ccc(-c2nc(N3CC4CCC(C3)O4)c3cnn(C4CCC5(CC4)OCCO5)c3n2)cc1, the % of control [11] is reported as 77% and the % of inhibition [12] is reported as 5%.

Compound O[C@H]1CC[C@H](Nc2ncc3nc(Nc4c(F)cc(F)cc4F)n([C@H]4CCOC4)c3n2)CC1 has a % of control [13] of 27%.

Compound CC[C@@H]1[C@H](F)C(=O)N[C@@H]1COc1nccc2cc(C(N)=O)c(OC)cc12 [ZIMLOVISERTIB] has a % of inhibition [14] of 9.6%.

CCN(CC)CCCCNc1ncc2cc(-c3cc(OC)cc(OC)c3)c(NC(=O)NC(C)(C)C)nc2n1 was tested, and the % of control [15] was 100%.

Compound CN(C)C/C=C/C(=O)Nc1ccc(C(=O)N2CCCC(Nc3ncc(Cl)c(-c4c[nH]c5ccccc45)n3)C2)cc1 (configuration not stated) has a % of control [16] of 88%.
